Experimental findings from US12686701B2, “Substitution of histidine with 2-thiohistidine in bioactive peptides” (University of Vermont and State Agricultural College, priority 2021, dated 2026) are described below.

“Also recorded” adds a separate entry of the source. *1 amine or outer side, *2 acyl side, *3 side chain or, on linkers, in order; H or OH if unused. Where a SMILES comes first, the peptide text is derived from it. [ ]: non-standard residue; d: D form. X1 = O=C([C@H](Cc1c[nH]c(=S)[nH]1)N[*:1])[*:2]

A short description of assay [1]: DPPH radical scavenging activity (UV-Vis, 517 nm). The conditions noted are these: for DPPH Radical TEAC: Trolox equivalent antioxidant capacity, 50 μM DPPH, 15 min, pH 7.0, 60:40 ethanol:buffer, ND = activity too low to be determined, TEAC close to zero; for ability to scavenge DPPH radical (in words): absorbance peak at 517 nm. Type of assay: biochemical. As for the experimental part:
Measurement of 2,2-diphenyl-1-picrylhydrazyl (DPPH) radical scavenging activity. DPPH activity assays were conducted according to procedures known in the art. A 1 mM stock solution of DPPH was prepared by dissolving DPPH in 95% ethanol. Peptide stock solutions were prepared at a concentration of 5 mM in 100 mM potassium phosphate buffer, pH 7.0 for each of the His- and 2-thioHis-containing peptides. 6-hydroxy-2,5,7,8-tetramethylchromane-2-carboxylic acid (Trolox) was used as a standard for antioxidant activity and a positive control. A 5 mM solution of Trolox in 100 mM potassium phosphate, pH 7.0 was prepared. A blank was prepared by mixing 600 μL of 95% ethanol with 400 μL of 100 mM potassium phosphate, pH 7.0 in a cuvette. This solution was used to blank the spectrophotometer from 200-800 nm. In each sample, a 60:40 ratio of ethanol:buffer was maintained. To test the ability of Trolox and the different peptides to reduce DPPH, 50 μM DPPH was combined with different concentrations of peptide or Trolox ranging from 5 μM to 500 μM and the total volume of each sample was adjusted to 1 mL with buffer and ethanol. The samples were allowed to incubate at room temperature in the dark for 15 min, after which each sample was scanned and changes in the absorbance at 517 nm were monitored. Trials were run in triplicate for each of the peptides and Trolox. For every trial, one sample was prepared with only 50 μM DPPH (no peptide or Trolox) to serve as a control. The percentage of inhibition of DPPH oxidation was calculated using Equation 1:
[formula] where Acontrol is the absorbance of the control (DPPH and buffer only) and Asample is the absorbance at 517 nm of the test peptide/standard. A Trolox calibration curve was prepared with concentrations ranging from 5-50 μM (FIG. 13). Similar curves were prepared for each of the peptides (FIG. 13). These curves were used to calculate Trolox equivalent antioxidant capacity (TEAC) values for each of the peptides by calculating the ratio of peptide to Trolox to achieve the same percent reduction of DPPH.

A short description of assay [2]: ABTS radical scavenging activity (UV-Vis, 734 nm). Type of assay: biochemical. The settings on record: for ABTS radical TEAC: Trolox equivalent antioxidant capacity, 10 min, PBS pH 7.2, average of three or more trials, ND = activity too low to be determined, TEAC close to zero; for ability to scavenge ABTS radical (in words): absorbance peak at 734 nm. As for the experimental part: Measurement of 2,2′-azino-di-[3-ethylbenzthiazoline sulfonate (6)] (ABTS) radical scavenging activity. ABTS scavenging assays were performed according to previously published protocols with some modifications. A 10 mM stock solution of potassium persulfate was prepared in deionized water. A stock solution of ABTS was prepared by dissolving 7 mM ABTS and 2.45 mM potassium persulfate in deionized water. This solution was allowed to incubate at room temperature in the dark for 12-16 h to allow potassium persulfate to oxidize the ABTS. Following oxidation, the solution was a dark blue/green color. This solution was stable in the dark at room temperature for at least 48 h. This solution was diluted with 100 mM phosphate buffered saline, pH 7.2 so that the final absorbance was 0.70±0.02 at 734 nm. Stock solutions for all peptides and for Trolox were prepared in a range from 0.1 mM to 3.2 mM in 100 mM phosphate buffered saline, pH 7.2. To test the ability of Trolox and peptides to reduce the ABTS radical cation, samples were prepared with 990 μL of the diluted ABTS solution and 10 μL of each of the peptide or Trolox stock solutions. For every trial, one sample was prepared with 990 μL ABTS and 10 μL of buffer. The samples were allowed to incubate at room temperature in the dark for 10 min. The spectrophotometer was blanked with 1 mL of 100 mM phosphate buffered saline, pH 7.2 from 200-800 nm. Scans were taken for each of the samples and the change in absorbance at 734 nm was monitored. Every sample was run in triplicate and the results were averaged. The percentage of inhibition of ABTS oxidation was calculated using Equation 2.
[formula] where Acontrol is the absorbance of the control (ABTS and buffer only) and Asample is the absorbance at 734 nm of the test peptide/standard. A Trolox calibration curve was prepared with concentrations ranging from 1-32 μM (FIG. 14). Similar curves were prepared for each of the peptides (FIG. 14). These curves were used to calculate TEAC values for each of the peptides by calculating the ratio of peptide to Trolox to achieve the same percent reduction of ABTS.

The nature of assay [3]: Hydroxyl radical scavenging activity by room temperature EPR (Fenton reaction, DMPO spin trap). The class given is biochemical. The conditions noted are these: for ability to scavenge ·OH (in words) / increase in ·OH scavenging ability on substituting 2-thioHis for His: 1 mM; for Hydroxyl Radical RSA (%): all analytes at 1 mM, potassium phosphate pH 7.4, average of three or more trials; for increase in ·OH scavenging ability on substituting 2-thioHis for His: difference of RSA versus His-containing counterpart. As for the experimental part: Measurement of hydroxyl radical scavenging activity. Hydroxyl radical scavenging activity of peptides was measured with room temperature EPR spectroscopy according to known methods with some modifications. Hydroxyl radicals were generated by the iron-catalyzed Fenton Haber-Weiss reaction, and the generated hydroxyl radicals were reacted with the nitrone spin trap 5,5-dimethyl-1-pyrroline-N-oxide (DMPO). The resultant DMPO-OH adducts were detectable with EPR spectroscopy. The peptide (1 mM final concentration) was added to a solution containing: 24 mM DMPO, 0.8 mM FeSO4, and 0.8 mM H2O2 in 100 mM potassium phosphate buffer, pH 7.4 in a final reaction volume of 250 μL. This solution was immediately transferred into a 50 μL quartz capillary tube. After 5 min, the EPR spectrum was recorded using a Bruker X-band EPR spectrometer operating at 9.42 GHz. The experimental conditions employed were as follows: magnetic field, 336.5±10 mT; power, 2 mW; modulation amplitude, 2.00 G; time constant, 327.68 ms, modulation frequency, 100 kHz; receiver gain, 30 dB sweep time, 60 s. Trials were performed in triplicate for each peptide. The double integral of the EPR spectra was obtained and used to determine the signal intensity for each sample. The hydroxyl radical scavenging ability was calculated using Equation 3, in which H and H0 are relative peak height of radical signals with and without sample, respectively. [formula]

Assay [4] can be described thus: Low temperature (95 K) EPR of peptide-Cu(II) complexes. Type of assay: binding. The conditions noted are these: from EPR spectra, not quantified. How it is done:
Low temperature EPR studies. The ability of each peptide to bind Cu(II) was determined by low temperature (95 K) EPR spectroscopy using the methods known in the art with some modifications. Samples of 200 μM and 400 μM peptide were incubated for 10 min at room temperature with 200 μM CuCl2 in 100 mM potassium phosphate, pH 7.4. Following incubation, aliquots of each sample were transferred into 4 mm inner diameter quartz EPR tubes (Wilmad-LabGlass). The samples were frozen in liquid nitrogen and stored in liquid nitrogen prior to use. Control samples were prepared with only buffer and with 200 μM CuCl2 in potassium phosphate buffer. Low temperature EPR spectra were gathered with a Bruker EPR spectrometer operating at 9.42 GHz with the following parameters: scan range, 6000 G; field set, 3200 G; time constant, 164 ms; scan time, 60 s; modulation amplitude, 7.000 G; modulation frequency, 100 kHz; receiver gain, 30 dB; microwave power, 20 mW; and number of scans, 5.

On to H-βAthioH-OH [thioHcarnosine], for which the “DPPH Radical TEAC” value in assay [1] came to 0.80 ± 0.01. Also, the “ABTS radical TEAC” value in assay [2] came out at 2.25 ± 0.05. Further, in assay [3], the “ability to scavenge ·OH (in words)” value was “less than 2-thioHis”, the “Hydroxyl Radical RSA (%)” value amounted to 43.5 ± 1.1% and the “increase in ·OH scavenging ability on substituting 2-thioHis for His” value (“increase in ·OH scavenging ability” for short) came out at 13%. The “affinity for / binding of Cu(II) (in words)” value in assay [4] is “higher affinity for Cu(II) than carnosine”.

In the case of H-GHK-OH [reference compound], the “ability to scavenge DPPH radical (in words)” value in assay [1] was “only a slight decrease in the DPPH absorbance peak at 517 nm”. Also, the “ability to scavenge ABTS radical (in words)” value in assay [2] is listed as “no decrease in the ABTS absorbance peak at 734 nm”. In assay [3], the “Hydroxyl Radical RSA (%)” value is listed as 65.4 ± 0.008%.

In the case of H-GthioHK-OH, in assay [1], the “DPPH Radical TEAC” value is recorded as 0.95 ± 0.02; the “ability to scavenge DPPH radical (in words)” value is “completely reduce the DPPH and ABTS radicals”. Also, in assay [2], the “ABTS radical TEAC” value is reported as 2.61 ± 0.01; the “ability to scavenge ABTS radical (in words)” value is “completely reduce the DPPH and ABTS radicals; also recorded: slightly higher TEAC value than the other 2-thioHis peptides”. Besides, in assay [3], the “ability to scavenge ·OH (in words)” value is “highest RSA of all compounds tested; also recorded: nearly completely abolishing the signal”, the “Hydroxyl Radical RSA (%)” value is listed as 97.0 ± 0.3% and the “increase in ·OH scavenging ability” value amounted to 31.6%.

`Cc1c(C)c2c(c(C)c1O)CCC(C)(C(=O)O)O2` (centres unmarked) [Trolox, 6-hydroxy-2,5,7,8-tetramethylchromane-2-carboxylic acid, reference compound]: the “DPPH Radical TEAC” value in assay [1] came out at 1.00. Moreover, the “ABTS radical TEAC” value in assay [2] was 1.00.

Take “HGPLGPL [H-HGPLGPL-OH, reference compound]”: the “Hydroxyl Radical RSA (%)” value in assay [3] is 46.8 ± 1.3%.

Turning to `NCCC(=O)N[C@@H](Cc1cnc[nH]1)C(=O)O` [Carnosine, H-βAH-OH, reference compound], in assay [3], the “ability to scavenge ·OH (in words)” value is recorded as “not a good ·OH scavenger” and the “Hydroxyl Radical RSA (%)” value was determined as 31.4 ± 4.2%.

Consider `NC(Cc1c[nH]c(=S)[nH]1)C(=O)O` [2-thioHis, L-2-thiohistidine], for which, in assay [1], the “DPPH Radical TEAC” value was determined as 1.00 ± 0.02 and the “ability to scavenge DPPH radical (in words)” value was “same ability as Trolox”. Moreover, in assay [2], the “ABTS radical TEAC” value came to 1.50 ± 0.03. Moreover, in assay [3], the “Hydroxyl Radical RSA (%)” value was 56.0 ± 2.1% and the “increase in ·OH scavenging ability” value was found to be 7.5%.

On to `CC(C)C[C@H](NC(=O)[C@@H]1CCCN1C(=O)CNC(=O)[C@H](CC(C)C)NC(=O)[C@@H]1CCCN1C(=O)CNC(=O)[C@@H](N)Cc1c[nH]c(=S)[nH]1)C(=O)O` [thioHGPLGPL, H-thioHGPLGPL-OH] (H-[X1]GPLGPL-OH), for which, in assay [1], the “DPPH Radical TEAC” value is reported as 0.95 ± 0.01. In addition, the “ABTS radical TEAC” value in assay [2] worked out at 2.14 ± 0.02. Further, in assay [3], the “ability to scavenge ·OH (in words)” value is “equivalent to 2-thioHis itself”, the “Hydroxyl Radical RSA (%)” value amounted to 59.7 ± 3.0% and the “increase in ·OH scavenging ability” value is 12%.

Take `N[C@@H](Cc1c[nH]cn1)C(=O)O` [His, histidine]: the “Hydroxyl Radical RSA (%)” value in assay [3] is 48.5 ± 7.3%.
